Laboratory results from US11970490B2, “Stable heavy isotopes in amide functional groups and uses thereof” (RISEN (SUZHOU) PHARMA TECH CO., LTD., priority 2020, dated 2024).

Tests used:
[1] = Pharmacokinetic studies in beagle dogs, single oral dose, co-administered; assay type: in vivo; conditions: for Cmax / Tmax / half-life / AUC(0-t) / Vd/F: both sexes, dog, plasma; for Cmax / Tmax / half-life / AUC(0-t) / Vd/F / CLz/F: single oral dose 2.5 mg/kg each; for Cmax / Tmax / half-life / Vd/F / CLz/F: co-administered; for AUC(0-t): co-administered (total 5 mg/kg); for Vd/F: read-out: Vz/F
Method: Male and female beagle dogs (n=4; 2 males and 2 females) were used in the study. A single oral dose of Alpelisib (2.5 mg/kg) and Compound 1 (^18O1-Alpelisib) (2.5 mg/kg) were co-administered (at a total dose of 5 mg/kg) in DMSO and 0.5% carboxymethyl cellulose sodium (CMC-Na) aqueous solution (5:95, v/v). Blood samples were collected for analysis of Alpelisib and ^18O1-Alpelisib at 0.25, 0.5, 1, 1.5, 2, 3, 4, 6, 8, 10, 12 and 24 h. In FIG. 4, lines labelled with -o- and -Δ- represent the plasma concentrations of Alpelisib-^18O1 and Alpelisib, respectively, following oral administration of the same dose of Alpelisib-^18O1 and Alpelisib to the animals.

[2] = Pharmacokinetic studies in Sprague Dawley (SD) rats, oral gavage, plasma; assay type: in vivo; conditions: for AUC(0-t) / AUC(0-inf) / Cmax / Tmax / Vd/F: Sprague-Dawley, rat; for AUC(0-t) / AUC(0-inf) / Cmax / Tmax / Vd/F / plasma concentration at 24-h timepoint / CLz/F: oral gavage; for AUC(0-t) / AUC(0-inf) / Cmax / Tmax / Vd/F / CLz/F: plasma; for Vd/F: read-out: Vz/F; for plasma concentration at 24-h timepoint: 0.322 mg/kg
Method: (a) SD rats, six in a group (n=6), were grouped randomly. Compound 1 (Alpelisib-^18O1) and Alpelisib were mixed and adjusted to 1:1 molar ratio in dosing solution (1.25 mg/mL); and the dosing solution was administered to the animals, via oral gavage, at a dose level of 2.5 mg/kg. Blood samples were collected at pre-set time points following drug administration, at 0.167, 0.5, 1, 2, 3, 4, 6, 8, and 24 hours (h). The blood samples were converted to plasma samples using standard techniques, and the latter samples were analyzed to determine the concentrations of Compound 1 and Alpelisib. In FIG. 1a, lines labelled with -o- and -Δ-represent the plasma concentrations of Alpelisib-^18O1 and Alpelisib, respectively, following oral administration of the same molar dose of Alpelisib-^18O1 and Alpelisib to the animals.
(b) Similarly, Compound 1 (Alpelisib-^18O1) and Alpelisib were administered to the animals (SD rats, n=4), via oral gavage, at a low dose (dose level of 0.322 mg/kg). Blood samples were collected at pre-set time points following drug administration, at 0.167, 0.5, 1, 2, 4, 6, 8, 10 and 24 hours (h). The blood samples were converted to plasma samples using standard techniques, and the latter samples were analyzed to determine the concentrations of Compound 1 and Alpelisib. […] In FIG. 1b, solid line and dashed line represent the plasma concentrations of Alpelisib-^18O1 and Alpelisib, respectively.

[3] = Pharmacokinetic studies in ICR mice, oral gavage, plasma; assay type: in vivo; conditions: 2.5 mg/kg; for AUC(0-inf) / AUC(0-t) / Cmax / Tmax / Vd/F: mouse; for AUC(0-inf) / AUC(0-t) / Cmax / Tmax / Vd/F / CLz/F: oral gavage, 1:1 molar mix, plasma; for Vd/F: read-out: Vz/F
Method: ICR mice, 48, in 6 groups (n=8), were grouped randomly. Compound 1 (Alpelisib-^18O1) and Alpelisib were mixed and adjusted to 1:1 molar ratio in dosing solution (1.25 mg/mL); and the dosing solution was administered to the animals, via oral gavage, at a dose level of 2.5 mg/kg. Blood samples were collected (a group of 8 animals for each time point) at time points, after dosing, at 0.5, 1, 2, 4, 8, and 12 h. The blood samples were converted to plasma samples using standard techniques, and the latter samples were analyzed to determine the concentrations of Compound 1 and Alpelisib. In FIG. 2, lines labelled with -o- and -Δ-represent the plasma concentrations of Alpelisib-^18O1 and Alpelisib, respectively, following oral administration of the same dose of Alpelisib-^18O1 and Alpelisib to the animals.

[4] = M4 and M4-18O1 production in pooled human S9; assay type: in vitro ADME; conditions: pooled human S9, 37° C., β-NADPH, 0-240 min, equal molar co-incubation
Method: (§1) Stock solution (50 μL) containing equal molar concentration of Alpelisib and Alpelisib-^18O1 was diluted with pre-warmed (37° C., water bath) 0.1 M Tris-Acetate buffer; and the concentration of each compound in this working solution was 4.5 μM. In each incubation well were added the above working solution (50 μL) and a liver S9 solution (50 μL), mixed well. The sample was pre-incubated for 5 min, following by addition, to each well, of β-NADPH dosing solution (100 μL). The sample plate was incubated at 37° C., and analyzed at time points of 0, 15, 30, 60, and 240 min., in triplicates. Sample analysis: at a pre-set time-point, a stop solution (800 μL, acetonitrile) was added to each well; the sample was well-mixed (Vortex), and centrifuged at 12000 rpm for 5 minutes; the supernatant was transferred to analytical sample vial, and then analyzed with LC-MS/MS, for M4 and M4-^18O1. […] Liver S9 used in the experiment: (a) monkey liver S9, (b) pooled human S9, (c) mini pig liver S9, and (d) male Wistar rat Liver S9.

[5] = M4 and M4-18O1 production in male Wistar rat liver S9; assay type: in vitro ADME; conditions: male Wistar rat liver S9, 37° C., β-NADPH, 0-240 min, equal molar co-incubation
Method: as §1

[6] = M4 and M4-18O1 production in mini pig liver S9; assay type: in vitro ADME; conditions: mini pig liver S9, 37° C., β-NADPH, 0-240 min, equal molar co-incubation
Method: as §1

[7] = M4 and M4-18O1 production in monkey liver S9; assay type: in vitro ADME; conditions: monkey liver S9, 37° C., β-NADPH, 0-240 min, equal molar co-incubation
Method: as §1

[8] = James, A. et al., 2015; cited from earlier work
[9] = dose 2.5 mg/kg, 1:1 molar mix of Compound 1 and Alpelisib

Row | SMILES | Cmax [1] [ng/mL] | Tmax [1] [h] | half-life [1] [h] | AUC(0-t) [1] [ng·h/mL] | Vd/F [1] [L/kg] | CLz/F [1] [mL/min/kg] | AUC(0-t) [2, 9] [ng·h/mL] | AUC(0-inf) ([2]; dose 2.5 mg/kg, 1:1 molar mix) [ng·h/mL] | Cmax ([2]; dose 2.5 mg/kg, 1:1 molar mix) [ng/mL] | Tmax ([2]; dose 2.5 mg/kg, 1:1 molar mix) [h] | Vd/F ([2]; dose 2.5 mg/kg, 1:1 molar mix) [L/kg] | AUC(0-inf) ([2]; low dose 0.322 mg/kg) [ng·h/mL] | AUC(0-t) ([2]; low dose 0.322 mg/kg) [ng·h/mL] | Cmax ([2]; low dose 0.322 mg/kg) [ng/mL] | Tmax ([2]; low dose 0.322 mg/kg) [h] | Vd/F ([2]; low dose 0.322 mg/kg) [L/kg] | plasma concentration at 24-h timepoint [2] | CLz/F ([2]; dose 2.5 mg/kg, 1:1 molar mix) [mL/min/kg] | CLz/F ([2]; low dose 0.322 mg/kg) [mL/min/kg] | AUC(0-inf) [3] [ng·h/mL] | also measured
1 | Cc1nc(NC(=O)N2CCC[C@H]2C(N)=O)sc1-c1ccnc(C(C)(C)C(F)(F)F)c1 [Alpelisib, N-(4-methyl-5-(2-(2,2,2-trifluoro-1,1-dimethylethyl)-4-pyridinyl)-2-thiazolyl)aminocarbonyl-L-prolinamide, reference compound] | 931 | 1.2 | 5.4 | 6120 | 3 | 6.83 | 26400 | 26500 | 2300 | 3 | 1.8 | 80.3 | 75.2 | 28.1 | 0.625 | 13.1 | below the limit of quantification | 7.87 | 68.3 | 30600 | AUC(0-t) [3]: 26200 ng·h/mL; Cmax [3]: 4210 ng/mL; Tmax [3]: 2 h; Vd/F [3]: 2.37 L/kg; CLz/F [3]: 6.82 mL/min/kg
2 | Cc1nc(NC(=O)N2CCC[C@H]2C(N)=[18O])sc1-c1ccnc(C(C)(C)C(F)(F)F)c1 [Compound 1, N-(4-methyl-5-(2-(2,2,2-trifluoro-1,1-dimethylethyl)-4-pyridinyl)-2-thiazolyl)aminocarbonyl-L-prolin-^18O-amide] | 1470 | 1.1 | 4.5 | 6680 | 2.4 | 6.33 | 28700 | 28800 | 2390 | 3 | 1.66 | 132 | 118 | 32.6 | 0.875 | 11.4 | below the limit of quantification | 7.23 | 41.7 | 32600 | metabolism compared to Alpelisib (M4-18O1 versus M4 production) [4]: reduced; metabolism compared to Alpelisib (M4-18O1 versus M4 production) [5]: reduced; plasma concentration compared with Alpelisib ([1]; oral, 2.5 mg/kg each): higher; metabolism compared to Alpelisib (M4-18O1 versus M4 production) [6]: reduced; plasma concentration compared with Alpelisib ([2]; oral, both doses tested (2.5 and 0.322 mg/kg), greatest effect at low dose): higher; AUC(0-t) [3]: 27800 ng·h/mL; Cmax [3]: 4520 ng/mL; Tmax [3]: 2 h; Vd/F [3]: 2.24 L/kg; CLz/F [3]: 6.4 mL/min/kg; plasma concentration compared with Alpelisib ([3]; oral): higher; metabolism compared to Alpelisib (M4-18O1 versus M4 production) [7]: reduced
3 | Cc1nc(NC(=O)N2CCC[C@H]2C(=O)O)sc1-c1ccnc(C(C)(C)C(F)(F)F)c1 [Compound M4] | – | – | – | – | – | – | – | – | – | – | – | – | – | – | – | – | – | – | – | – | biological activity of the acid metabolite [8]: biologically inactive
